From BindingDB's records for doi:10.1021/acs.jmedchem.5b00354 (Florida Atlantic University, 2015)

Experiment: Inhibition of ADAM17 in human A549 cells assessed as potentiation of gefitinib-mediated inhibition of cell viability by measuring gefitinib IC50 at 40 uM incubated for 1 hr followed by gefitinib addition measured after 72 hrs by CellTiter-Glo assay (Rvb = 8.4 microM)

## O=C1NC[C@@H](Cc2ccc(O)cc2)N(C[C@@H]2CCCN2C[C@@H](Cc2ccc3ccccc3c2)N2C[C@H](Cc3ccc(O)cc3)N(CCC34CC5CC(CC(C5)C3)C4)C(=O)C2=O)C1=O
  IC50: 1900 nM
